We go through five molecules from article PMC6828813, “Biochemical characterisation of four rhamnosidases from thermophilic bacteria of the genera Thermotoga, Caldicellulosiruptor and Thermoclostridium” (Scientific Reports, 2019).

The target in data set [1] is T1, Ts_Ram106B (Thermoclostridium stercorarium, UniProt L7VK28).
T1 construct: gene Cst_c00400
The experiment in a line: product inhibition of pNPR hydrolysis, pNP absorbance at […] nm. Format: biochemical. Particulars: read-out: IC50 (at Km or Kprime).

For data set [2], the target named is T2, Tn_Ram106B (Thermotoga neapolitana, UniProt B9K9N8).
T2 construct: gene CTN_1495
The data set is described as above. To be noted: read-out: Ki^b, α^b (mM rhamnose). Type of data set: biochemical.

The target of data set [3] is T1, Ts_Ram106B. Described as above. Format: biochemical. To be noted: read-out: Ki^b, α^b (mM rhamnose).
For data set [4], the target named is T3, Cb_Ram106B (Caldicellulosiruptor bescii, UniProt B9MP87).
T3 construct: gene Athe_2581
The data set is described as above. Format: biochemical. Particulars: read-out: IC50 (at Km or Kprime).

Data set [5] addresses T2, Tn_Ram106B. Described as above. Type of data set: biochemical. Particulars: read-out: IC50 (at Km or Kprime).
Data set [6] addresses T4, Tm_Ram106B (Thermotoga maritima, UniProt Q9X0G3).
T4 construct: gene TM_1074
Described as above. Type of data set: biochemical. Particulars: read-out: Ki^b, α^b (mM rhamnose).

Data set [7] deals with T4, Tm_Ram106B. Described as above. Format: biochemical. Particulars: read-out: IC50 (at Km or Kprime).
The target of data set [8] is T3, Cb_Ram106B. The experiment in a line: pNP release, absorbance at […] nm, Hill fit. Type of data set: biochemical. To be noted: Kprime = Khalf^h, Hill coefficient h = 1.64 ± 0.20; 1 mM CoCl2, 100 mM MOPS pH 7 (RT), 70 °C.
Substrate in data set [9]: C[C@@H]1O[C@@H](Oc2ccc([N+](=O)[O-])cc2)[C@H](O)[C@H](O)[C@H]1O
The experiment in a line: purified protein. Type of data set: biochemical, Thermoclostridium stercorarium. To be noted: 1 mM CoCl2, 100 mM MOPS pH 7 (RT), 55 °C.

Substrate in data set [10]: C[C@@H]1O[C@@H](Oc2ccc([N+](=O)[O-])cc2)[C@H](O)[C@H](O)[C@H]1O
The experiment in a line: purified protein. Particulars: 1 mM CoCl2, 100 mM MOPS pH 7 (RT), 80 °C. Format: biochemical, Thermotoga maritima.

Substrate in data set [11]: C[C@@H]1O[C@@H](Oc2ccc([N+](=O)[O-])cc2)[C@H](O)[C@H](O)[C@H]1O
The experiment in a line: purified protein. Format: biochemical, Thermotoga neapolitana. Particulars: 1 mM CoCl2, 100 mM MOPS pH 7 (RT), 80 °C.

T3 sequence (B9MP87 entry or part of it): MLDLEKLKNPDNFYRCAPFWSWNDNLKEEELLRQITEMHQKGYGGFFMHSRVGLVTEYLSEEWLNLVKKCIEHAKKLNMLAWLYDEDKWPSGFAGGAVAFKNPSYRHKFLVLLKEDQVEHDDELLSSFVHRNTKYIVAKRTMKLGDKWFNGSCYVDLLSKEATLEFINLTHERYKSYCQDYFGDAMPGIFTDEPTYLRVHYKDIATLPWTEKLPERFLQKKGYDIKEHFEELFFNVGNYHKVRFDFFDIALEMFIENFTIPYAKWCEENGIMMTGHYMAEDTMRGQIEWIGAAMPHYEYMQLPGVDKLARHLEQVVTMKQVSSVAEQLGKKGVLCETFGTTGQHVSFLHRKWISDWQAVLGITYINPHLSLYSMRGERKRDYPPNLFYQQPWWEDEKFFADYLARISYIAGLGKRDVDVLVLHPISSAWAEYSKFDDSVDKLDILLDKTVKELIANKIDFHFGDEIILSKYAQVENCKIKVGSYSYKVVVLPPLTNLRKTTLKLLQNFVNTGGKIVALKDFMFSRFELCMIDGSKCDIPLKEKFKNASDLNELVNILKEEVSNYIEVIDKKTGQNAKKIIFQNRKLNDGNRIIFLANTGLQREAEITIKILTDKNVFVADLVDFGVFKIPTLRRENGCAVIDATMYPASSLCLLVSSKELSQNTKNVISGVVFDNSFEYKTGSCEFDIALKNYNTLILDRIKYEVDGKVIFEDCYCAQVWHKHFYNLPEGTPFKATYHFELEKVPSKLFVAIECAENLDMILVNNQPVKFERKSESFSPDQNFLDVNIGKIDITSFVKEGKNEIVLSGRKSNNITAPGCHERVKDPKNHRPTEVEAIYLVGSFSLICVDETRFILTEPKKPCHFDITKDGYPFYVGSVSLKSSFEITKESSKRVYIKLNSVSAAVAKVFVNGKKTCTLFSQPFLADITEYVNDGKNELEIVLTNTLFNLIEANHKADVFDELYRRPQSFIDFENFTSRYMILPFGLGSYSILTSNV

In general, IC50 refers to the concentration at which inhibition is half-maximal. The term Ki denotes a measure of affinity in units of concentration, obtained from inhibition or displacement. Consider `C[C@@H]1O[C@@H](O)[C@H](O)[C@H](O)[C@H]1O` [rhamnose], for which the IC50 on Ts_Ram106B [1] was found to be 8.3 mM; on Cb_Ram106B [4], 5.5 mM; at Tn_Ram106B [5], 6.5 mM; at Tm_Ram106B [7] it was 4.9 mM. Moreover, the values for the Ki at Tn_Ram106B [2], at Ts_Ram106B [3] and at Tm_Ram106B [6] were 5.5 ± 1.01 mM, 4.94 ± 0.75 mM and 2.37 ± 0.13 mM, respectively.

For `C[C@@H]1O[C@@H](Oc2ccc([N+](=O)[O-])cc2)[C@H](O)[C@H](O)[C@H]1O` [pNPR, para-nitrophenyl-α-L-rhamnopyranoside], the “Km or Kprime, h^b,c” value at Cb_Ram106B [8] is given as 1.29 ± 0.23 mM.

B1: Ts_Ram106B (Thermoclostridium stercorarium subsp. stercorarium DSM 8532) (protein)
chain: MFFKNSREEFDESLFRNPTSEYRCAPFWAWNKKLDWEDMERHIEIFKEMGMGGFHIHSRIGLNTPYLSDEFLDYVKKCNAKAKELGMLTWLYDEDKWPSGFGGGFVTKDHNFRSRYLLFSPFYHQSGYYERHIPRENRLGIDGYLSLIAEYKVVLKNGYLSSYKRIESGDNDSAEGETWYAYRVISGDLPWFNNQAYVDTLNKKAVEKFIEVTHEKYFEILGGEFSKSVPAVFTDEPQFVLKQNLPEPDSRQEVGIPYTDLFEESFRQRFGCSFLDSLPEIFWELEGGKFSRIRYWYHEHIAELFASSFADTVGRWCREHNLMLTGHMMAESTLESQTRALGEAMRSYRSFDLPGVDILANKYEYSTVKQAQSVARQFGKAGVLSELYGVTNWDFDFRGHKLQGDWQAAMGVSVRVPHLSWLGMGGESKRDYPAPVDYHSPWYKKYHIIEDHFSRVNVCMTRGVPCVNIAVIHPIESYWLLWGPDSQTKQKRLKLQQEFESIIDWLLFSNLDFDFIAESMVKELYRGSGNRHTQFGDMKYEVLIVPELITIRSETVKMLINHLENGGKVIILGNLPKIIDGDSDRKFDIECLGECVINNSKYDLLDALEPFRQIDIVNRDSSRNENYLYQLRDEAECKWLFIAPGKPVEALKLPEEKVLTVKVRGSYEVWRYDTFTGEKQKIQARGKDGWTYFEQTAYEHDSFLYRLLKTGTNDTTEKSVSSGVGRQVNKGVKYIKYLNGPWEYRLSEKNVLLLDMARYSLDNGEISEREEVLRIDDKIRTKLGYPLRTDSFPQPWLSPAEAECPHTVKLYFEIESETDVHEAELAFEGKGVTAEWNNVAVTDRADGFFIDKCFNVMKLPGIKKGVNQLVLTVPFGEKTDLEWCFITGNFGTCVKGDKVIITNPPERLFFGDVTRQGLSFYGGNITYIVNIDVPEGEMTVEIPQYRGALVEVALDNAKKGDIIFSPYRLNLGYVSQGEHTIEITLYGNRFNMFGQLHNCNRVEKYYGPNTWRTKGNAFAYEYQLREFGIIAAPLIYIE
What is called kcat is the maximal rate divided by the concentration of active sites. As to B1, in “purified protein [9]”, the K0.5 was 1.90 ± 0.18 mM and the kcat turned out to be 14.3 ± 0.5 s⁻¹.

B2: Tm_Ram106B (Thermotoga maritima MSB8) (protein)
chain: MNLKDLENPGVWYRPAPFWSWNDKLCEEELLRQIDEMYEKGYGGFFMHSRVGLVTEYLSEEWMRLVRSCAEHARKLGMLAWLYDEDKWPSGFAGGIVPLEKPEHRHKYLTLLKKDQIKPEDEILKKIERDGEEFYVVKRVMKLGDPWFNGTCYVDLLSRETTEAFLRSTHERYKKSCGDLFRVSIPGIFTDEPTYLRVHHPKETTLPWTERFPEEFLRRKGYDIRDHLEELFFNVKDYMKVRYDFFDVATSLFIENFTIPYAKWCEENGIFMTGHYMAEDTLRGQVEWIGAAMPHYEYMQIPGIDKLARHLEQVVTIKQVSSAAEQLGKKWVLCETFGTTGQHVSFLHRKWIADWQAVLGVTYINPHLSLYSMRGERKRDYPPNLFYQQPWWKNERFLSDYFARLNHIVTQGKREVKVLMIHPISSAWCVYSKFDDEIDKLNELFDTITKELVANKIDFHFGDEMILSKHGRVKEAKLRVGEYEYEVVVLPPLLNLKSSTVELLNSLAENGGKVFVLKDFRYGRFFPERVEGKKGRIEFLKKARVFETLEDLIEELKPFFSVDVLDTKTKENAKAVIAQKRVLEDGSYLLFLANTDIDREVHCHLELKEKRKHTYAIDLFNFKLVELKENEFVMFPASSVCIWVTDEEVPAEDEKVVSTGVLLEKEFDFETALNDFEVKMNSFNVLPVDRVEYFEAGGRVFRNEFVSKIWYEFYRLPDGTPFRVEYSFEVRKKPQKLFLVVECAENLDRITVNGREVRYERKSCIFNEEQNFLDVNFGKMEITDLVREGKNTVVLEGRKENNITGPGCHTRVKDPENHRPTEVETIYLVGDFSLVNVDETRYVIDAPKIPDHRDITRDGYPFYVGSFTLKKIFECKKDPGKRYFLKLNGVEAASVEVILNGKFLGVLFWRPFMIDITDALRNGKNELQLVLTNTLFNLIEANHKADVLEETFRRPKSFIDFEHHTDRYILLPFGLENVAVLSSSSR
B2: in the data set “purified protein [10]”, the K0.5 came to 1.94 ± 0.20 mM and the kcat stood at 217.8 ± 10.1 s⁻¹.

B3: Tn_Ram106B (Thermotoga neapolitana DSM 4359) (protein)
chain: MNLKDLENPGVWYRPAPFWSWNDKLCEEELLRQIDEMCEKGYGGFFMHSRVGLVTEYLSDEWMALVKRCAEHARKLGMLAWLYDEDKWPSGFAGGIVPLESDEYRHRFLVLLKKEQIEPGDEILKRIERGNEELFVVKRTMKLGDPWFNGTCYVDLLSKKVTEAFIRSTHEKYRKVCGEFFGSSIPGIFTDEPTYLRVHYPEIPTLPWTDRFPEEFLKRKGYDIREHFEELFFNTKDYMKVRYDFFDVATELFIENFTIPYAKWCEENGISMTGHYMAEDTLRGQVEWIGAAMPHYEYMQIPGVDKLARHLEQVITIKQVSSVAEQLRKKWVLCETFGTTGQHVSFLHRKWIADWQAVLGITYINPHLSLYSMRGERKRDYPPNLFYQQPWWKNEKRFSDYLARLNYLMTQGKREVKVLMIHPITSAWCVYSKFDDEIDKLNESFDRTVKELVSNKIDFHFGDETILSKHGRVSGEKLVVGNCEYDIVLVPPLLNLRRSTVDLLNEFSKNGGKILVLKDGNFFPERVEGRKEKPEFLKRARVFEDLQGLIDSLRDVAAVEVIDKKTGKNAKSVIAQKRLLENGSYIIFLANTDINREVHCQLNLKEEKRHIYAIDIFDFAVVEFSEREFTMHPASSLLIWVTDEEIPSQRRSVISTGVTLKREFELEMAFSEFETEMNGFNVLPVDRVDMFEADGKVFRDEYVSKIWYEFYRLPEGTPFGVVYSFEIREKPEKLFLVVECAENLDRITVNGHEAVFKKKGCTFTEEECFLDVNFGKMDITELVQVGKNIVVLEGKKSNNITGPGCHERVKNPENHRPTEVETIYLVGKFSLVNVDETKYVIDAPKTPDHKDITRSGYPFYVGSFTLRKTFEMKKDPKRRYFLKLNSVRAASVEVFLNEKFVGSLFWEPFMVEITDNLHDGKNELKLVLTNTLFNLIEANHKADVLEETFRRPWSFIDFEHHTDRYILLPFGLENAAVLSSFSP
On to B3, for which, in the data set “purified protein [11]”, the K0.5 was found to be 1.47 ± 0.14 mM and the kcat worked out at 146.8 ± 6.1 s⁻¹.
